In patent US20120101057A1, “COMBINED THERAPY OF COLORECTAL CARCINOMA” (INSTYTUT FARMACEUTYCZNY, priority 2009, published 2012):

Experiments:
MC38/0 = experiment: antiproliferative activity of 5-fluorouracil combined with vitamin D analogues in vitro, 120 h; type: cell-based, mouse; design: key: +: sub-additive effect; ++: additive effect; +++: synergistic effect; −: antagonism; conditions: 120-hours exposure
Experimental: After 24 h culture, the cells of large intestine carcinoma were treated simultaneously with calcitriol or vitamin D analogues and 5-fluorouracil for 120 hours. […] Statistical analysis of the obtained results of inhibition of proliferation was carried out by analysis of percent of inhibition of proliferation in individual combinations of compounds.
(§1) Hypothetical value was calculated according to a formula: […]
(§2) wherein: % H—hypothetical inhibition of proliferation by combination of compounds [Vo]; % cyt—inhibition of proliferation by 5-Fu alone [%]; % vit—inhibition of proliferation by calcitriol or cholecalciferol analogue alone [%];
(§3) Additive effect occurs when the experimental and hypothetical value are similar, sub-additive effect occurs when experimental value is lower than hypothetical value but above value for a cytostatic alone, and antagonistic action—when a value determined for a cytostatic used alone is above experimental value for combination of both compounds. [Peters G. J. i wsp.: Pharmacol Ther 2000, 87, 227-253]

[1] = tested on: murine colorectal carcinoma C38; experiment: tumour growth in mice with murine colorectal carcinoma C38 treated with capecitabine; type: in vivo, Mice of C57BL/6 strain; conditions: for Tumours MEAN ± SD / TGI: C38; for tumour mass, combination with capecitabine in comparison with capecitabine alone / type of interaction in inhibition of tumour growth with capecitabine: analogue combined with capecitabine; for tumour C38 mass in comparison with control: single agent
CaCo-2 = experiment: antiproliferative activity of 5-fluorouracil combined with vitamin D analogues in vitro, 120 h; type: cell-based, human; design: key to Type of reaction between vitamin D analogues and 5-fluorouracil: +: sub-additive effect; ++: additive effect; +++: synergistic effect; −: antagonism; conditions: for Type of reaction between vitamin D analogues and 5-fluorouracil: CaCo-2, analogue 100 nM + 5-fluorouracil 1 μg/ml, 120-hours exposure
Experimental: (§4) After 24 h culture, the cells of large intestine carcinoma were treated simultaneously with calcitriol or vitamin D analogues and 5-fluorouracil for 120 hours. The final concentration of vitamin D analogues was 100 nM, and of 5-fluorouracil—-1 μg/ml or 0.1 μg/ml. Statistical analysis of the obtained results of inhibition of proliferation was carried out by analysis of percent of inhibition of proliferation in individual combinations of compounds.
as §1, §2, §3

[2] = tested on: murine colorectal cancer C38; experiment: survival time and tumour growth in mice with colorectal cancer C38 treated with 5-FU (1b); type: in vivo; conditions: for ILS %: 5-FU 75 mg/kg i.p. day 1, PRI-2191 2, PRI-2205 10 μg/kg/day 3 times per week; for TGI (d20) %: day 20; for C38 tumour mass, combination with 5-FU in comparison with 5-FU: analogue combined with 5-FU; for C38 tumour mass in comparison with control: single agent
Experimental: Mice with colorectal cancer C38 were treated with 5-FU given in a single administration, intraperitoneally on day 1 at a dose of 75 mg/kg.

[3] = tested on: murine colorectal cancer C38; experiment: tumour growth in mice with colorectal cancer C38 treated with 5-fluorouracil (1a); type: in vivo, Mice of C57BL/6 strain; conditions: for TGI / Tumours MEAN ± SD: C38, 28 day of experiment; for Tumours MEAN ± SD: 5-FU 150 mg/kg i.p., PRI-2191 2 ug/kg s.c., PRI-2205 10 μg/kg s.c.; for volume of tumours C38, combination with 5-FU in comparison with 5-FU: analogue combined with 5-FU; for volume of tumours C38 in comparison with control: single agent
[4] = tested on: murine colorectal cancer MC38/EGFP; experiment: burden of metastases in regional lymph nodes, MC38/EGFP fluorescence (1c); type: in vivo, mice; conditions: for metastases in regional lymph nodes (intensity of fluorescence), combined treatment with 5-FU: 5-FU 75 mg/kg i.p. with PRI-2191 1 μg/kg or PRI-2205 10 μg/kg s.c., day 59; for metastases in regional lymph nodes (fluorescence) versus control mice: analogue only, day 50
Description: Cancer cells of murine colorectal cancer MC38/EGFP (cells expressing a protein of green fluorescence) were implanted subcutaneously in an amount of 1×10^6 cells/mouse. […] Compounds were given subcutaneously, 3 times a week. […] Then on day 59 of experiment, lymph nodes from mice of remaining were taken for analysis. Using NightOWL II LB 983 apparatus, photographs of isolated lymph nodes were taken in order to visualize cancer cells in sites of metastases.
Intensity of the measured fluorescence is related to a burden of metastases (the number of cells with fluorescence).

LoVo = experiment: antiproliferative activity of 5-fluorouracil combined with vitamin D analogues in vitro, 120 h; type: cell-based, human; design: key: +: sub-additive effect; ++: additive effect; +++: synergistic effect; −: antagonism; conditions: analogue 100 nM + 5-fluorouracil 1 μg/ml, 120-hours exposure
Experimental: as §4, §1, §2, §3

HT-29 = experiment: as above; type: cell-based, human; design: key: +: sub-additive effect; ++: additive effect; +++: synergistic effect; −: antagonism; conditions: analogue 100 nM + 5-fluorouracil 0.1 μg/ml, 120-hours exposure
Experimental: as §4, §1, §2, §3

colorectal cancer HT-29 = experiment: tumour growth in mice with colorectal cancer HT-29 treated with 5-fluorouracil; type: in vivo; conditions: for TGI / Tumours MEAN ± SD: HT-29, 49 day of experiment; for HT-29 tumour mass, combination with 5-FU in comparison with 5-FU alone / type of interaction in inhibition of HT-29 tumour growth: analogue combined with 5-FU; for HT-29 tumour mass in comparison with control: single agent
[5] = body mass of mice under combined therapy; type: in vivo; conditions: combination with 5-FU
[6] = calcium level in blood serum of mice treated with 5-FU and vitamin D analogues; type: in vivo, Mice of BALB/c strain; conditions: BALB/c; 5-FU 50 mg/kg i.p. day 1; PRI-2191 2 or PRI-2205 10 μg/kg/day 3 times a week
Experimental: Mice of BALB/c strain were treated with 5-FU given in a single administration, intraperitoneally on day 1 at a dose of 50 mg/kg. […] Calcium level was evaluated (Arsezano 3 method, Olympus AU400; Olympus America Inc., Melville, NY, USA) in blood serum of treated and control mice.

[7] = rats; cited from earlier work
[8] = MC38/0, analogue 100 nM + 5-fluorouracil 0.1 μg/ml
[9] = analogue 100 nM + 5-fluorouracil 0.01 μg/ml, cell line of this column unclear (MC38/0 or CaCo-2)
[10] = 18 day of experiment, KCY 250 mg/kg/day oral, PRI-2191 1, PRI-2205 10 μg/kg/day s.c.

Row | SMILES | Type of reaction between vitamin D analogues and 5-fluorouracil (MC38/0; [8]) | Type of reaction between vitamin D analogues and 5-fluorouracil (MC38/0; [9]) | Tumours MEAN ± SD [1, 10] [g] | tumour mass, combination with capecitabine in comparison with capecitabine alone [1] | type of interaction in inhibition of tumour growth with capecitabine [1] | tumour C38 mass in comparison with control [1] | Type of reaction between vitamin D analogues and 5-fluorouracil (CaCo-2) | ILS % ([2]; C38) [%] | TGI (d20) % ([2]; C38) [%] | C38 tumour mass, combination with 5-FU in comparison with 5-FU [2] | C38 tumour mass in comparison with control [2] | TGI [3] [%] | Tumours MEAN ± SD [3] [g] | volume of tumours C38, combination with 5-FU in comparison with 5-FU [3] | volume of tumours C38 in comparison with control [3] | Type of reaction between vitamin D analogues and 5-fluorouracil (LoVo) | Type of reaction between vitamin D analogues and 5-fluorouracil (HT-29) | TGI (colorectal cancer HT-29) [%] | Tumours MEAN ± SD (colorectal cancer HT-29) [g] | HT-29 tumour mass in comparison with control (colorectal cancer HT-29) | other results
1 | C=C1/C(=C/C=C2\CCC[C@]3(C)[C@@H]([C@H](C)/C=C/[C@@H](O)C4CC4)CC[C@@H]23)C[C@@H](O)C[C@@H]1O [PRI-2205, (1S,3R,5E,7E,22E,24S)-24-cyclopropyl-9,10-secochol-5,7,10(19),22-tetraeno-1,3,24-triol] | +++ | +++ | 0.81 ± 0.60 | influences significantly tumour mass in comparison with capecitabine alone | synergism | does not influence tumour mass | +++ | 2 | 0 | in a statistically significant manner decreases tumour mass also in comparison with 5-FU | does not influence tumour mass | 29 | 1.06 ± 0.84 | decreases in statistically significant manner volume of tumours also in comparison with 5-FU | inhibits C38 tumours growth from 18 to 28 day of measurement | +++ | +++ | 31 | 1.88 ± 0.78 | did not influence tumour mass | influence on survival time of mice treated with 5-FU ([2]; C38, analogue added to 5-FU, p<0.05): prolongs survival of mice treated with 5-FU; ILS Effect ([2]; C38, combination with 5-FU, survival time): synergistic; metastases in regional lymph nodes (intensity of fluorescence), combined treatment with 5-FU [4]: did not influence the metastatic process; metastases in regional lymph nodes (fluorescence) versus control mice [4]: did not differ significantly; HT-29 tumour mass, combination with 5-FU in comparison with 5-FU alone (colorectal cancer HT-29): influences significantly also tumour mass in comparison with 5-FU alone; type of interaction in inhibition of HT-29 tumour growth (colorectal cancer HT-29): synergism
2 | CCCCCOC(=O)Nc1nc(=O)n([C@@H]2O[C@H](C)[C@@H](O)[C@H]2O)cc1F [KCY, capecitabine] |  |  | 0.41 ± 0.33 |  |  | decreases tumour C38 mass in comparison with control |  |  |  |  |  |  |  |  |  |  |  |  |  |  | TGI ([1]; 18 day of experiment): 47%; TGI ([1]; 29 day of experiment): 35%; Tumours MEAN ± SD ([1]; 29 day of experiment): 1.65 ± 1.39 g
3 | C=C1/C(=C\C=C2/CCC[C@]3(C)[C@@H]([C@H](C)CC[C@@H](O)C(C)C)CC[C@@H]23)C[C@@H](O)C[C@@H]1O [PRI-2191, 1,24(R)-dihydroxycholekalciferol] | +++ | +++ | 0.75 ± 0.32 | influences significantly tumour mass in comparison with capecitabine alone | a synergistic effect is seen mainly in the last days of the experiment | does not influence tumour mass | +++ | 52 | 44 | in a statistically significant manner decreases tumour mass also in comparison with 5-FU | inhibits C38 tumour growth only in two last measurements | 16 | 0.88 ± 0.49 | decreases in statistically significant manner volume of tumours also in comparison with 5-FU | inhibits 38C tumours growth in the last four measurements | +++ | +++ | 16 | 2.19 ± 1.51 | did not influence tumour mass | body mass of mice treated with 5-FU in combination with vitamin D analogue, versus 5-FU alone [5]: increased loss of body mass; calcium level in blood serum of mice [6]: calcium level increases in statistically significant degree; metastases in regional lymph nodes (intensity of fluorescence), combined treatment with 5-FU [4]: increased anti-metastatic action; metastases in regional lymph nodes (fluorescence) versus control mice [4]: did not differ significantly; HT-29 tumour mass, combination with 5-FU in comparison with 5-FU alone (colorectal cancer HT-29): influences significantly also tumour mass in comparison with 5-FU alone; type of interaction in inhibition of HT-29 tumour growth (colorectal cancer HT-29): synergism
4 | C=C1/C(=C\C=C2/CCC[C@]3(C)[C@@H]([C@H](C)CCCC(C)(C)O)CC[C@@H]23)C[C@@H](O)C[C@@H]1O [CALCITRIOL, 1,25-dihydroxycholekalciferol] | +++ | +++ |  |  |  |  | − |  |  |  |  |  |  |  |  | +++ | +++ |  |  |  | interaction with 5-fluorouracil (CaCo-2; Caco-2 cell line, 120-hour exposure): antagonism
5 | O=c1[nH]cc(F)c(=O)[nH]1 [5-FU, 5-fluorouracil] |  |  |  |  |  |  |  | 21 | 64 |  | decreases in a statistically significant manner C38 tumour mass in comparison with control | 84 | 0.19 ± 0.19 |  | decreases in statistically significant manner volume of tumours C38 in comparison with control |  |  | 47 | 1.23 ± 0.30 | decreases in a statistically significant manner HT-29 tumour in comparison with control | 
6 | C=C1/C(=C\C=C2/CCC[C@]3(C)[C@@H]([C@H](C)/C=C/[C@@H](O)C4CC4)CC[C@@H]23)C[C@@H](O)C[C@@H]1O [PRI-2201, (1S,3R,5Z,7E,22E,24S)-24-cyclopropyl-9,10-secochola-5,7,10(19),22-tetraeno-1,3,24-triol] | +++ | +++ |  |  |  |  | +++ |  |  |  |  |  |  |  |  | +++ | +++ |  |  |  | lesser influence on calcium metabolism than calcitriol [7]: 100-200 fold
